According to PubChem BioAssay AID330 (DTP/NCI, 2004):
Several values for one entry are separate records, joined by “and”; a condition that tells them apart may be missing. Equal entries are not always repeated. Toxic doses and inconclusive results are not listed. The calls were made as follows: active = survival T/C of 150% or more; inactive = T/C below 125% in these data.

System: P388 leukemia ip, CD2F1 mice, survival T/C
Assay: NCI In Vivo Anticancer Drug Screen. Data for tumor model P388 Leukemia (intraperitoneal) in CD2F1 (CDF1) mice
Settings: endpoint: median survival time, higher = longer survival
Method in brief: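 Mice carrying the transplanted tumor received test compound or vehicle. Survival was recorded in each group, and the value is the treated-group measurement divided by that of the vehicle-treated control group.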

[1] = dose: 60.0 mg/kg/injection, schedule: Q01DX005 (ip), vehicle: saline with Tween-80
[2] = dose: 120.0 mg/kg/injection, schedule: Q01DX005 (ip), vehicle: saline with Tween-80
[3] = dose: 240.0 mg/kg/injection, schedule: Q01DX005 (ip), vehicle: saline with Tween-80
[4] = dose: 50.0 mg/kg/injection, schedule: Q01DX005 (ip), vehicle: Klucel (hydroxypropylcellulose) (HPC)
[5] = dose: 100.0 mg/kg/injection, schedule: Q01DX005 (ip), vehicle: Klucel (hydroxypropylcellulose) (HPC)
[6] = dose: 200.0 mg/kg/injection, schedule: Q01DX005 (ip), vehicle: Klucel (hydroxypropylcellulose) (HPC)
[7] = dose: 50.0 mg/kg/injection, schedule: Q01DX009 (ip), vehicle: saline with Tween-80
[8] = dose: 100.0 mg/kg/injection, schedule: Q01DX009 (ip), vehicle: saline with Tween-80
[9] = dose: 200.0 mg/kg/injection, schedule: Q01DX009 (ip), vehicle: saline with Tween-80
[10] = dose: 50.0 mg/kg/injection, schedule: Q01DX009 (ip), vehicle: saline
[11] = dose: 100.0 mg/kg/injection, schedule: Q01DX009 (ip), vehicle: saline
[12] = dose: 200.0 mg/kg/injection, schedule: Q01DX009 (ip), vehicle: saline
[13] = dose: 100.0 mg/kg/injection, schedule: Q04DX003 (ip), vehicle: Klucel (hydroxypropylcellulose) (HPC)
[14] = dose: 200.0 mg/kg/injection, schedule: Q04DX003 (ip), vehicle: Klucel (hydroxypropylcellulose) (HPC)
[15] = dose: 100.0 mg/kg/injection, schedule: Q04DX003 (ip), vehicle: saline with Tween-80
[16] = dose: 200.0 mg/kg/injection, schedule: Q04DX003 (ip), vehicle: saline with Tween-80
[17] = dose: 400.0 mg/kg/injection, schedule: Q04DX003 (ip), vehicle: saline with Tween-80

Measured: T/C

Cc1cc(C)n(-c2ccc(N(CCO)CCO)nn2)n1
inactive: dose: 75.0 mg/kg/injection, schedule: Q01DX005 (ip), vehicle: other 93 % of control | dose: 150.0 mg/kg/injection, schedule: Q01DX005 (ip), vehicle: other 88 % of control | dose: 250.0 mg/kg/injection, schedule: Q01DX005 (oral), vehicle: water 103 % of control | dose: 300.0 mg/kg/injection, schedule: Q01DX005 (ip), vehicle: other 93 % of control | dose: 500.0 mg/kg/injection, schedule: Q01DX005 (oral), vehicle: water 116 % of control | dose: 1000.0 mg/kg/injection, schedule: Q01DX005 (oral), vehicle: water 99 % of control

COc1ccc(-n2c(N)c(C#N)c3c(c2=S)CCC3)cc1
inactive: dose: 50.0 mg/kg/injection, schedule: Q01DX005 (ip), vehicle: Klucel + Tween-80 106 % of control | dose: 100.0 mg/kg/injection, schedule: Q01DX005 (ip), vehicle: Klucel + Tween-80 99 % of control | dose: 200.0 mg/kg/injection, schedule: Q01DX005 (ip), vehicle: Klucel + Tween-80 92 % of control

CC1(C)NC(=O)N(CN2CCOCC2)C1=O
inactive: dose: 30.0 mg/kg/injection, schedule: Q01DX005 (ip), vehicle: saline 104 % of control | dose: 60.0 mg/kg/injection, schedule: Q01DX005 (ip), vehicle: saline 109 % of control and 111 % of control and 93 % of control | dose: 120.0 mg/kg/injection, schedule: Q01DX005 (ip), vehicle: saline 106 % of control and 119 % of control and 123 % of control | dose: 240.0 mg/kg/injection, schedule: Q01DX005 (ip), vehicle: saline 106 % of control and 116 % of control and 120 % of control

O=c1sc2ccccc2n2cccc12
inactive: [1] 92 % of control | [2] 94 % of control | [3] 92 % of control

Cc1nc2[nH]cc(C)c2c(=O)[nH]1
inactive: [1] 103 % of control | [2] 97 % of control | [3] 105 % of control

O=C(NS(=O)C1C=CC2CCCC21)OC1CCCCC1c1ccccc1 (configuration not stated)
inactive: [4] 109 % of control | [5] 100 % of control | [6] 97 % of control

CN1CCN(C2=NS(=O)(=O)c3cc(Cl)ccc3N2)CC1
inactive: [7] 104 % of control | [8] 104 % of control | [9] 91 % of control

CC[N+](C)(CC)CCOc1ccc(OCC[N+](C)(CC)CC)c2c1C(=O)c1ccccc1C2=O
inactive: dose: 0.78 mg/kg/injection, schedule: Q01DX005 (ip), vehicle: saline 98 % of control | dose: 1.56 mg/kg/injection, schedule: Q01DX005 (ip), vehicle: saline 109 % of control | dose: 3.12 mg/kg/injection, schedule: Q01DX005 (ip), vehicle: saline 100 % of control

CCOC(=O)/C(Cl)=C(\C)Nc1nc2c(ccc3ccccc32)s1
inactive: [1] 98 % of control | [2] 90 % of control

CC1OC(O)C(O)C(O)C1O (configuration not stated)
inactive: [4] 101 % of control | [5] 93 % of control | [6] 104 % of control

Cn1c(=O)c2[nH]c(C3COCCO3)nc2n(C)c1=O (configuration not stated)
inactive: [1] 91 % of control | [3] 87 % of control

O=C1SC(Nc2ccc([N+](=O)[O-])cc2)/C(=N\N=C2/C(Nc3ccc([N+](=O)[O-])cc3)SC(=O)N2Cc2ccccc2)N1Cc1ccccc1 (configuration not stated)
inactive: dose: 100.0 mg/kg/injection, schedule: Q04DX002 (ip), vehicle: Klucel (hydroxypropylcellulose) (HPC) 95 % of control | dose: 200.0 mg/kg/injection, schedule: Q04DX002 (ip), vehicle: Klucel (hydroxypropylcellulose) (HPC) 95 % of control | dose: 400.0 mg/kg/injection, schedule: Q04DX002 (ip), vehicle: Klucel (hydroxypropylcellulose) (HPC) 97 % of control

CC1C(C#N)C(=O)NC(=O)C1C#N (configuration not stated)
inactive: [10] 99 % of control | [11] 100 % of control | [12] 100 % of control

C[n+]1cccc(C(=O)O)c1
inactive: dose: 25.0 mg/kg/injection, schedule: Q01DX005 (ip), vehicle: saline 100 % of control | dose: 50.0 mg/kg/injection, schedule: Q01DX005 (ip), vehicle: saline 101 % of control | dose: 100.0 mg/kg/injection, schedule: Q01DX005 (ip), vehicle: saline 99 % of control | dose: 200.0 mg/kg/injection, schedule: Q01DX005 (ip), vehicle: saline 91 % of control

COc1ccc2nc(NC(=O)Nc3ccc(C)c(NC(=O)Nc4nc5ccc(OC)cc5s4)c3)sc2c1
inactive: dose: 50.0 mg/kg/injection, schedule: Q01DX009 (ip), vehicle: Klucel (hydroxypropylcellulose) (HPC) 92 % of control | dose: 100.0 mg/kg/injection, schedule: Q01DX009 (ip), vehicle: Klucel (hydroxypropylcellulose) (HPC) 89 % of control

CCOC(=O)n1oc2ccccc2c1=O
inactive: [4] 99 % of control | [5] 98 % of control | [6] 98 % of control

C=CCSc1nc2ccc(NCn3c(=S)sc4ccccc43)cc2s1
inactive: [13] 89 % of control | [14] 89 % of control | dose: 400.0 mg/kg/injection, schedule: Q04DX003 (ip), vehicle: Klucel (hydroxypropylcellulose) (HPC) 89 % of control

C=C(C)C1CCC=CC(=O)C1 (configuration not stated)
inactive: [13] 107 % of control | [14] 116 % of control

C[C@]12C=CC(=O)C=C1CC[C@@H]1[C@@H]2[C@@H](O)C[C@@]2(C)[C@H]1CC[C@]2(O)C(=O)COC(=O)CCC1CCCC1
inactive: [15] 104 % of control | [16] 100 % of control | [17] 91 % of control

COCC(O)C(NC(=O)CCl)C(=O)O (configuration not stated)
inactive: [10] 110 % of control and 97 % of control | [11] 90 % of control and 98 % of control | [12] 95 % of control

Cc1ccc(N=NN(C)C)cc1
inactive: dose: 12.5 mg/kg/injection, schedule: Q01DX009 (ip), vehicle: saline with Tween-80 110 % of control | dose: 12.5 mg/kg/injection, schedule: Q04DX003 (ip), vehicle: saline with Tween-80 104 % of control | dose: 25.0 mg/kg/injection, schedule: Q01DX009 (ip), vehicle: saline with Tween-80 115 % of control | dose: 25.0 mg/kg/injection, schedule: Q04DX003 (ip), vehicle: saline with Tween-80 100 % of control | dose: 33.0 mg/kg/injection, schedule: Q01DX009 (ip), vehicle: saline with Tween-80 118 % of control | [7] 122 % of control | dose: 50.0 mg/kg/injection, schedule: Q04DX003 (ip), vehicle: saline with Tween-80 109 % of control

CC(=O)Nc1cc(F)c2c(c1F)Cc1cc(F)ccc1-2
inactive: [8] 100 % of control | [15] 100 % of control | [9] 90 % of control | [16] 100 % of control | [17] 104 % of control

CC(C)C(NC(=O)c1ccccc1)C(=O)O (configuration not stated)
inactive: dose: 50.0 mg/kg/injection, schedule: Q01DX005 (ip), vehicle: saline with Tween-80 98 % of control | dose: 100.0 mg/kg/injection, schedule: Q01DX005 (ip), vehicle: saline with Tween-80 93 % of control | dose: 200.0 mg/kg/injection, schedule: Q01DX005 (ip), vehicle: saline with Tween-80 88 % of control

COc1ccc(CCC#N)cc1OC
inactive: dose: 25.0 mg/kg/injection, schedule: Q01DX009 (ip), vehicle: other 104 % of control | dose: 50.0 mg/kg/injection, schedule: Q01DX009 (ip), vehicle: other 105 % of control | dose: 100.0 mg/kg/injection, schedule: Q01DX009 (ip), vehicle: other 100 % of control | dose: 200.0 mg/kg/injection, schedule: Q01DX009 (ip), vehicle: other 110 % of control

COc1cccc2c1C(=O)C=C(c1ccccc1)S2(=O)=O
inactive: [4] 111 % of control | [5] 111 % of control

CCC(/C=C/c1ccccc1)=N\NC(=O)c1ccc(Cl)c(Cl)c1
inactive: [1] 88 % of control and 89 % of control | [2] 88 % of control | [3] 92 % of control and 97 % of control

N#CC1CCCCC1C1(C#N)CCCCC1Cc1nccc2ccccc12 (configuration not stated)
inactive: [15] 95 % of control | [16] 100 % of control | [17] 86 % of control

CC1C=C(COC(=O)Nc2ccccc2)ON1c1ccccc1 (configuration not stated)
inactive: dose: 100.0 mg/kg/injection, schedule: Q01DX001 (ip), vehicle: Klucel (hydroxypropylcellulose) (HPC) 108 % of control | dose: 200.0 mg/kg/injection, schedule: Q01DX001 (ip), vehicle: Klucel (hydroxypropylcellulose) (HPC) 97 % of control | dose: 400.0 mg/kg/injection, schedule: Q01DX001 (ip), vehicle: Klucel (hydroxypropylcellulose) (HPC) 100 % of control

C[C@]12CC[C@H]([C@@]3(C)CC[C@H]4CC[C@]43O)[C@@H](CO)[C@@H]1CC[C@@H]2O
inactive: [1] 104 % of control | [2] 98 % of control | [3] 91 % of control

O=C(O)C(Cc1cn(Cc2ccccc2)cn1)NCc1ccccc1 (configuration not stated)
inactive: [4] 92 % of control | [5] 104 % of control | [6] 95 % of control
